In ChEMBL document CHEMBL1152560, “Substituted 2-arylbenzothiazoles as kinase inhibitors: hit-to-lead optimization” (Bioorg Med Chem, 2009) one finds residual activity data, which are given here for three molecules.

In test [1] the target is T1, Tyrosine-protein kinase JAK3 (Homo sapiens) (UniProt P52333).
T1 sequence (whole entry): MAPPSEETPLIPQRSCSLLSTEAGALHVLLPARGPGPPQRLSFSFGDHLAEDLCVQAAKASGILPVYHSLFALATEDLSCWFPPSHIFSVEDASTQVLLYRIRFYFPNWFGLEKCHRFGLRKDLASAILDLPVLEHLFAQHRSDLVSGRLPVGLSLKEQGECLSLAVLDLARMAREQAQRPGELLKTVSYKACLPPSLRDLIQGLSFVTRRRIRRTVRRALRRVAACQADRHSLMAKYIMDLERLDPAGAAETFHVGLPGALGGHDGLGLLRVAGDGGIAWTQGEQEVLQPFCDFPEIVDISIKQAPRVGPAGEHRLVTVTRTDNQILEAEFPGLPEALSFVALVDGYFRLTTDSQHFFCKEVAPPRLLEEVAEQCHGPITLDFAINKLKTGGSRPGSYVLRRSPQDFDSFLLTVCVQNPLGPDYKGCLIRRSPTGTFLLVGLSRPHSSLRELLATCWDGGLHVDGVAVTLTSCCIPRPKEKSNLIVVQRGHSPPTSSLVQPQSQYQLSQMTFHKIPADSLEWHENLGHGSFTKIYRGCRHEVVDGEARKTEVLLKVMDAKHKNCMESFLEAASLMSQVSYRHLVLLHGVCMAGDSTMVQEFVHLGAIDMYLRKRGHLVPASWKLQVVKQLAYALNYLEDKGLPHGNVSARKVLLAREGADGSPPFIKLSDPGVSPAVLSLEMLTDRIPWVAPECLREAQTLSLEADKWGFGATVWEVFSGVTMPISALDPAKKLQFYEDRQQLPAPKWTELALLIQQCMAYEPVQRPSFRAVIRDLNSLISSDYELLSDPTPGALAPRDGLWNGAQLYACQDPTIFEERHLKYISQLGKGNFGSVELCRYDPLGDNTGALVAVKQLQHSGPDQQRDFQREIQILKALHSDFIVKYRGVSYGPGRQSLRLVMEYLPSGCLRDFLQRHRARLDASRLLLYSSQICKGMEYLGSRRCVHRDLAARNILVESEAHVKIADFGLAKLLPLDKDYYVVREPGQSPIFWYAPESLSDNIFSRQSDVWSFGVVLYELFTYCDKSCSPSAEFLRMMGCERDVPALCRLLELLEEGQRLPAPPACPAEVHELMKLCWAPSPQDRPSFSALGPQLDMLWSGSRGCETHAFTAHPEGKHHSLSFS
Briefly: Residual activity of JAK3 at 1 uM by microplate scintillation counting.

Test [2] addresses Casein kinase II subunit alpha (Homo sapiens) (UniProt P68400). Kind of test: Residual activity of CK2alpha1 at 10 uM by microplate scintillation counting.
For test [3], the target named is T2, Cytoplasmic tyrosine-protein kinase BMX (Homo sapiens) (UniProt P51813).
T2 sequence (whole entry): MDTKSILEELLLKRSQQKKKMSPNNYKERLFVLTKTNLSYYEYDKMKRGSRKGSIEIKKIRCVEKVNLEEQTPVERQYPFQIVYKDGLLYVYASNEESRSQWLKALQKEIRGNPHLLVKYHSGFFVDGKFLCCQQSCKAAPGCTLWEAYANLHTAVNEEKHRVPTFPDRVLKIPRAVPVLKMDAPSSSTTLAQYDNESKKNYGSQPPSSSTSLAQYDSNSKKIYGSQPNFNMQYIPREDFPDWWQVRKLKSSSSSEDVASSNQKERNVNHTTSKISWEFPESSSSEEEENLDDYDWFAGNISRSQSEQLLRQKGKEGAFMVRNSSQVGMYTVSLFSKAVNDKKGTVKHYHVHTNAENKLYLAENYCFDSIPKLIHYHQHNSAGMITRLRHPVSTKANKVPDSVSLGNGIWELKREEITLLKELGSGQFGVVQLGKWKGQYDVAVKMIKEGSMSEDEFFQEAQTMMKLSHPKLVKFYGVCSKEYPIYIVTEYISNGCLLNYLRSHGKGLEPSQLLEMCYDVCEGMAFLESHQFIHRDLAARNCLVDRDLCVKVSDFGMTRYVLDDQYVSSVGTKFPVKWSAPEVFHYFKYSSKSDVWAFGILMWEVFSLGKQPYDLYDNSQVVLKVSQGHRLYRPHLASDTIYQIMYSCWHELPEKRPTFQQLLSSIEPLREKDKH
Briefly: Residual activity of BMX at 1 uM by microplate scintillation counting.

For test [4], the target named is T3, Megakaryocyte-associated tyrosine-protein kinase (Homo sapiens) (UniProt P42679).
T3 sequence (whole entry): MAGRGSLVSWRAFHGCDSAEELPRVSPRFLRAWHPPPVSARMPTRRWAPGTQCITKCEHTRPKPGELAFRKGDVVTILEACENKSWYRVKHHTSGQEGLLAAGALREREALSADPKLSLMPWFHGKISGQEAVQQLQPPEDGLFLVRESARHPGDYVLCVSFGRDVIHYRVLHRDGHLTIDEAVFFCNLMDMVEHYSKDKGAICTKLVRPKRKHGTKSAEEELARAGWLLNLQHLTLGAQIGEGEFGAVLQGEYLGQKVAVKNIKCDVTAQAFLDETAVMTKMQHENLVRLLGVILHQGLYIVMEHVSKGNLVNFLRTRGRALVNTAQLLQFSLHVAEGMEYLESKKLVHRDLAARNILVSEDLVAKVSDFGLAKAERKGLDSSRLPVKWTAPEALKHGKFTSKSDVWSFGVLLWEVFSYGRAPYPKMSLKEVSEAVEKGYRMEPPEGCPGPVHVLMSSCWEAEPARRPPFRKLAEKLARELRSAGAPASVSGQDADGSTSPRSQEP
Kind of test: Residual activity of MATK at 10 uM by microplate scintillation counting.

The target of test [5] is CDK1/Cyclin E (Homo sapiens) (UniProt P06493+P24864). Briefly: Residual activity of CDK1/Cyclin E at 0.1 uM by microplate scintillation counting. The test is classed as protein-complex assay.
Sequence of CDK1/Cyclin E (Homo sapiens) (P06493 whole entry, looked up): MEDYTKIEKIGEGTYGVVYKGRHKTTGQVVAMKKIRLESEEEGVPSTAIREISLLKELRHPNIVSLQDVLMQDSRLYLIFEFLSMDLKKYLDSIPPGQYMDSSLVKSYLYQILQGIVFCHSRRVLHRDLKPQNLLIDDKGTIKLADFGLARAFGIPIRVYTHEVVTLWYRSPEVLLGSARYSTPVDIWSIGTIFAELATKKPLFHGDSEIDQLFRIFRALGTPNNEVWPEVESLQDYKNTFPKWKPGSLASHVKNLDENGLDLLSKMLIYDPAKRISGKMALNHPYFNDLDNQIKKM
Sequence of CDK1/Cyclin E (Homo sapiens) (P24864 whole entry, looked up): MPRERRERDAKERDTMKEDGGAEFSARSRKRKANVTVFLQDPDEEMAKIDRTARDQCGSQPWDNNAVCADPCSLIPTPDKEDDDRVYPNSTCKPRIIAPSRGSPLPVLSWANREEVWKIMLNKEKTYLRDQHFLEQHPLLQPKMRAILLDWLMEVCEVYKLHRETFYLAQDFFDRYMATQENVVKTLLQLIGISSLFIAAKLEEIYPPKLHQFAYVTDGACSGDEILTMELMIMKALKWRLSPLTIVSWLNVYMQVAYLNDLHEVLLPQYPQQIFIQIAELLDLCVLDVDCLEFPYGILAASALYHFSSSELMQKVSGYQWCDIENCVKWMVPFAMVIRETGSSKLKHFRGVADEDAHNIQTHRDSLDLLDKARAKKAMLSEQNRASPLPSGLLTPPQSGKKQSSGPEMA

Sequence of Casein kinase II subunit alpha (Homo sapiens) (P68400 whole entry, looked up): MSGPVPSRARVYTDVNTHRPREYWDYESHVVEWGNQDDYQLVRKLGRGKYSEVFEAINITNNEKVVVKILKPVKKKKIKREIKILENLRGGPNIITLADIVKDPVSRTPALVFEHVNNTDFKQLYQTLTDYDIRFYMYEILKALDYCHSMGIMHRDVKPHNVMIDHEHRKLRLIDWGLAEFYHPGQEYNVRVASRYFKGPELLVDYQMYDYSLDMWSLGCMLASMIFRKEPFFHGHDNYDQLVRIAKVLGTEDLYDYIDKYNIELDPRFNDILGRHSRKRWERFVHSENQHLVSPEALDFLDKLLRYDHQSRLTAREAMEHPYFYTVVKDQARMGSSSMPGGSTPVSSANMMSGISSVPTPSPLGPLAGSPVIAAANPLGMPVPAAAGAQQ

For `COc1cc2c(Oc3ccc(-c4nc5ccccc5s4)cc3F)ncnc2cc1OCCCN1CCN(C)CC1`, the residual activity (commonly the signal under treatment as a percentage of the control signal) in test [1] stood at 92%; in test [2] it was 264%; in test [3] it was 128%; in test [4], 215%; in test [5] it was 89%.

With `COc1cc2c(Oc3ccc(-c4nc5ccccc5s4)cc3)ncnc2cc1OCCCN1CCN(C)CC1`, the residual activity in test [1] was 101%; in test [2], 229%; in test [3], 122%; in test [4], 377%; in test [5], 85%.

As to `COc1cc2c(Oc3ccc(-c4nc5ccccc5s4)cc3)ncnc2cc1OCCCN1CCCC1`, the residual activity in test [1] worked out at 93%; in test [2], 188%; in test [3], 127%; in test [4] it was 267%; in test [5] it was 78%.
